Experimental data as given in ChEMBL document CHEMBL1201862, “PubChem BioAssay data set” (2004).
Active and inactive are the calls of the source. For most assays here, no stated cut-off is given here; in the data, actives have a measured EC50 and inactives only a lower limit.

Tests used:
[1] = microbe, parasite or virus in culture; assay type: functional; details: Mycobacterium tuberculosis
[2] = target: T1, Corticotropin-releasing factor receptor 2/Corticotropin-releasing factor-binding protein (Homo sapiens, UniProt P24387+Q13324); experiment: activators of CRF receptor 2 with binding protein – uHTS hits, confirmation (AID 602473); assay type: functional; details: read-out: EC50_Mean
T1 sequence (Q13324 whole entry): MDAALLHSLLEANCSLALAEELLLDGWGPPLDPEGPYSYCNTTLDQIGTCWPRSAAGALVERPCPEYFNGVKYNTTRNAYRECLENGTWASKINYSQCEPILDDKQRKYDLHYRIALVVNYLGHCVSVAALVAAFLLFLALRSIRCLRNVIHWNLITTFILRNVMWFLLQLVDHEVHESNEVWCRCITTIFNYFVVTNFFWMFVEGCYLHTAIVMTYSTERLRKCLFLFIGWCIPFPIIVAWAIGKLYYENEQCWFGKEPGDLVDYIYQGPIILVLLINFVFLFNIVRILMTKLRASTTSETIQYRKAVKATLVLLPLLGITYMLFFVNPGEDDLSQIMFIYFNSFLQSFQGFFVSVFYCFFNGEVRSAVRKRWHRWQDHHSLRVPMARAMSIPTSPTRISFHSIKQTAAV
T1 sequence (P24387 whole entry): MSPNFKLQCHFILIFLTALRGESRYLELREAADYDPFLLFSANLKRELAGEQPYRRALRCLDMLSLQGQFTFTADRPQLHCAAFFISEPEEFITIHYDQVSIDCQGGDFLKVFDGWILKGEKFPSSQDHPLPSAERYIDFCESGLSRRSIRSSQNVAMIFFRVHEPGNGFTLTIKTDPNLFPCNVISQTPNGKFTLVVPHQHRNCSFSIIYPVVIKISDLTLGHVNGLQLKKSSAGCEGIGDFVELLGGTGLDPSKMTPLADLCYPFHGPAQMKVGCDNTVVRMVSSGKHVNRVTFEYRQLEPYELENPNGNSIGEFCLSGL

[3] = test system: Streptococcus sp. 'group A'; experiment: Streptococcus pyogenes SK(-)GAS viability under kanamycin – luminescence, BacTiterGlo, confirmation, counter-screen for streptokinase expression inhibitor project, dose response (AID 1900); assay type: functional, organism-based
Streptokinase A = target: T2, Streptokinase A (Streptococcus pyogenes serotype M1, UniProt P10520); experiment: viability-normalized secreted streptokinase activity reduction – plasminogen activation absorbance, OD405, dose response (AID 1914); assay type: functional, Streptococcus pyogenes M1 GAS;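 further: secreted streptokinase activity via plasminogen activation per viability signal from cell pellet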
T2 sequence (P10520 whole entry): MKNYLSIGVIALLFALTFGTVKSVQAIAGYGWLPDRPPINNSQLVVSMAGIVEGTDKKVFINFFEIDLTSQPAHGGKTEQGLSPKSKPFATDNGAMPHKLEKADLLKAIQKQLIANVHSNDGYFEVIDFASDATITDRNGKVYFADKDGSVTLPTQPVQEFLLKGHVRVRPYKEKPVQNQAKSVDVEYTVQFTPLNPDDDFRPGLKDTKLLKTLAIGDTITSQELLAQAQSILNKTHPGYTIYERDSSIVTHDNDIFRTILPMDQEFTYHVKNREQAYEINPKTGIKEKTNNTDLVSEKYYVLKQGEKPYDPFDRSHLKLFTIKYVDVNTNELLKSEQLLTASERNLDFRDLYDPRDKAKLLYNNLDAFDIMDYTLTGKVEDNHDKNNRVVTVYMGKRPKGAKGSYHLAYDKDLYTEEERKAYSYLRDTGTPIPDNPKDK

Streptococcus = experiment: GAS UMAA2166 growth inhibition – luminescence, BacTiterGlo, counter-screen for streptokinase expression inhibitor project, dose response (AID 1915); assay type: functional, organism-based;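 further: potency for reduction of bacterial viability or growth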
Nonstructural protein 1 = Nonstructural protein 1 (Influenza A virus, UniProt Q194T2); assay type: functional, Influenza A virus (A/California/07/2009(H1N1))
H9c2 = experiment: cells; assay type: functional, cell-based; details: Rattus norvegicus, H9c2, Myocardium;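 further: confirmatory concentration-response retest of ultra-high-throughput screening hits for modulation of myocardial damage; cell death induced by hydrogen peroxide oxidative stress; compound pretreatment for 60 min then peroxide exposure for 2 h; potency is for protecting the cells against peroxide damage rather than for killing them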
[4] = NIH-3T3 fibroblast cytotoxicity, dose response, cytotoxicity control, cell-based, fluorescence, Alamar Blue, secondary assay (AID 2327); assay type: functional;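 further: NIH-3T3 mouse fibroblasts cultured with fluconazole at 8 µg/mL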
[5] = fluconazole-exposed Candida albicans growth modulators – fluorescence, retest, confirmation (AID 2467); assay type: functional, cell-based
[6] = Trypanosoma cruzi growth suppression in host cells – NIH3T3 host cells, beta-gal luminescence, confirmation (AID 2044); assay type: functional, cell-based;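 further: intracellular parasites grown in NIH/3T3 mouse fibroblasts as host cells; luminescent beta-galactosidase reporter signal from transgenic T. cruzi replicating inside host cells; inhibitors lower the luminescence signal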
[7] = NIH3T3 cell viability loss – ATP luminescence, mouse fibroblasts, counter-screen, dose response (AID 2010); assay type: functional, cell-based;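 further: cells exposed to compound for about 90 hours before reading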
[8] = Luminescence Cell-Based Dose Retest to Confirm Inhibitors of Cancer Stem Cells. [Related pubchem assays (depositor defined):AID2717, AID2721]; assay type: functional; details: Homo sapiens
[9] = luciferase reporter signal suppression in cells – H4 neuroglioma cells, luminescence, dose response (AID 1990); assay type: functional, cell-based
[10] = Luminescence Cell-Based Dose Response HTS to Identify Inhibitors of 5'UTR Stem-Loop Driven Prion Protein mRNA Translation in H4 Neuroglioblastoma Cells. [Related pubchem assays: 1827 (Project Summary), 1813 (Primary HTS)]; assay type: functional
[11] = alpha-synuclein stem-loop luciferase translation blockers – H4 neuroglioma cells, luminescence, confirmation (AID 1988); assay type: functional, cell-based
[12] = target: T3, Replicative DNA helicase DnaB (Mycobacterium tuberculosis, UniProt P9WMR3); experiment: DnaB intein splicing inhibitors, dose response, biochemical, cell-free fluorescence (AID 449749); assay type: functional
T3 sequence (P9WMR3 whole entry): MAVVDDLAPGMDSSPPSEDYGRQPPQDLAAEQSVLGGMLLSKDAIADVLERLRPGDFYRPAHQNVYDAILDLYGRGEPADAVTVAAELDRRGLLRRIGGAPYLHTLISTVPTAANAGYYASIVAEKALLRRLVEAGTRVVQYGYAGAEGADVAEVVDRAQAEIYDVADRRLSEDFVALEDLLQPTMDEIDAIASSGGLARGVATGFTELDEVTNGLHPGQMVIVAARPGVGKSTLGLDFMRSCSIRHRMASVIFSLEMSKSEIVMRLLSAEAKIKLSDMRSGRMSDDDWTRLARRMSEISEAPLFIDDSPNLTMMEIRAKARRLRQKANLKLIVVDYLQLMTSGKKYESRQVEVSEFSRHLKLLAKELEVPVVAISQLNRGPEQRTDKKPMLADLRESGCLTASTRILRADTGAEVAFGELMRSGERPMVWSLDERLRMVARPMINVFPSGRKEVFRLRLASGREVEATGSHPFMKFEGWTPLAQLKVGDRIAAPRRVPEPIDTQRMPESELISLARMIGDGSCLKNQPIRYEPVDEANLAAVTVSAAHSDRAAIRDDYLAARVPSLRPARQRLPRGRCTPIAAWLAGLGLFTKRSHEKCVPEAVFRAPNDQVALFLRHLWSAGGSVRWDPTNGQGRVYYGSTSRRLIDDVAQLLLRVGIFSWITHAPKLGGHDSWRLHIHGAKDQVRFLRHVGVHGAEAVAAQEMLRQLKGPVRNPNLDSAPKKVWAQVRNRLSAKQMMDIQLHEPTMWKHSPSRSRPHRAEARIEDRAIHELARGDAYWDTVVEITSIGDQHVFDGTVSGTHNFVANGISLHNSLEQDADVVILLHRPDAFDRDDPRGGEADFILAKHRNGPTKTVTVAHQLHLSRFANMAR

Protein RecA = target: T4, Protein RecA (Mycobacterium tuberculosis, UniProt P9WHJ3); experiment: Fluorescence Cell-Free Homogeneous Dose Retest to Identify Inhibitors of RecA-Intein Splicing Activity. [Related pubchem assays (depositor defined):AID2097, AID2223, AID489010, AID492950]; assay type: functional
T4 sequence (P9WHJ3 whole entry): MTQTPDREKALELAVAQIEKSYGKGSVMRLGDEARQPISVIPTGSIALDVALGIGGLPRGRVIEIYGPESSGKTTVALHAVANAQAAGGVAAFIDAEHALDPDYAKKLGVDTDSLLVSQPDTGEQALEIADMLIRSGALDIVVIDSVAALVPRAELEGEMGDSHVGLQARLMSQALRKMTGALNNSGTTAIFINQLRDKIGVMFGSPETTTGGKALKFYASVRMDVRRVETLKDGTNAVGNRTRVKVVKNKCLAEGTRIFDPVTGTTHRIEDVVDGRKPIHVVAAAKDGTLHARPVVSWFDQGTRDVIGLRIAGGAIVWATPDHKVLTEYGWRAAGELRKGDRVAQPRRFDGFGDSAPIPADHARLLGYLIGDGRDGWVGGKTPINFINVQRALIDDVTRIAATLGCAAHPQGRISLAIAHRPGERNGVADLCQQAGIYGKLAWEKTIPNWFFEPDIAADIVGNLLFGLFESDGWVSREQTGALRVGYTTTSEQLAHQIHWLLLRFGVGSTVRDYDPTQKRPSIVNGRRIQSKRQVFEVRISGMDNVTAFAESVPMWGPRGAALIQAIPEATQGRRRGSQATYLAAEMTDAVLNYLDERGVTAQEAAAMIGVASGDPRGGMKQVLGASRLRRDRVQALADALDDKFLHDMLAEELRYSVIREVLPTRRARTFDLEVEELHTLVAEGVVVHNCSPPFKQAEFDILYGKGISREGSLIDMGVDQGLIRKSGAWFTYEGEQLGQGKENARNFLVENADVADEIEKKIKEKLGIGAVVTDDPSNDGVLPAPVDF

Nonstructural protein 1, sequence (Q194T2 whole entry): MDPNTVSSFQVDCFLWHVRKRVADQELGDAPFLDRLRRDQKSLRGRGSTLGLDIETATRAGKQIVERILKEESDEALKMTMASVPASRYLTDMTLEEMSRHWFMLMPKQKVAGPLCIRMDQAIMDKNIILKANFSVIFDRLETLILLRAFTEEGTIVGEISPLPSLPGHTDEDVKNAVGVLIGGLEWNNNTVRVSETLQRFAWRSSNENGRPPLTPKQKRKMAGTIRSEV

CCc1noc(C)c1C(=O)Nc1nc(-c2ccc(F)cc2)c(C)s1
CC50 [1]: > 40 µM (active)

Cc1cc(-c2cccs2)c2c(N)c(C(=O)c3ccc4c(c3)OCO4)sc2n1
EC50 [2]: 7.29 µM (active)

CCCCCn1c(N)c(-c2nc3ccccc3s2)c2c([N+](=O)[O-])nn(CC)c(=O)c21
EC50 [3]: 6.03 µM (active) | EC50 (Streptokinase A): > 150 µM (not active) | EC50 (Streptococcus): > 150 µM (not active) | IC50 (Nonstructural protein 1): > 50 µM (active)

Cc1ccc(C(C(=O)NCc2ccccc2)N(Cc2ccco2)C(=O)c2snc(C(N)=O)c2N)o1 (stereo not drawn)
IC50 (H9c2): > 79 µM (inactive)

CCC(c1nnnn1Cc1ccco1)N(Cc1cc2cc(C)cc(C)c2nc1O)CC1CCCO1 (stereo not drawn)
IC50 (H9c2): > 79 µM (inactive)

CC(C)OC(=O)C(=O)NNc1ccccc1
EC50 [4]: 1.21 µM (active) | EC50 [5]: > 38 µM (not active) | EC50 [6]: 0.792 µM (active) | EC50 [7]: < 6 µM (inconclusive) | AC50 [8]: 0.731 µM (active)

Cc1cccc(OCCn2nc(C(=O)O)c3ccccc3c2=O)c1
IC50 (H9c2): > 79 µM (inactive)

CCCOP(=O)(OCCC)c1c([N+](=O)[O-])cc(C(F)(F)F)cc1[N+](=O)[O-]
CC50 [1]: 24.2 µM (active)

CC(OC(=O)CCc1nc(O)c2ccccc2n1)C(=O)NC1CCCC1 (stereo not drawn)
IC50 (H9c2): 30.3 µM (inactive)

COc1ccc(CNC(=O)c2ccc(Cn3nc(C)c([N+](=O)[O-])c3C)o2)cc1
IC50 (H9c2): > 79 µM (inactive)

O=C(CCS(=O)(=O)c1ccccc1)Nc1nnc(C(F)(F)F)s1
EC50 [4]: > 160 µM (inactive) | EC50 [5]: 0.302 µM (active)

Cc1cc(N2C(=O)C(O)=C(C(=O)c3cc4ccccc4o3)C2c2cccs2)no1 (stereo not drawn)
EC50 [4]: 70.9 µM (active) | EC50 [5]: 1.17 µM (active)

CCOc1ccc(N2CCc3c(C)nc(SC)nc32)cc1
CC50 [1]: 34.9 µM (active)

Oc1ccc(NCc2nnc(O)c3ccccc23)cc1
IC50 (H9c2): > 79 µM (inactive)

O=C(CCc1nc(O)c2ccccc2n1)NNC(=O)c1ccccc1Cl
IC50 (H9c2): 16.2 µM (active)

CCOC(=O)c1ccc(NC(=O)Nc2ccn(C)n2)cc1
EC50 [4]: > 150 µM (inconclusive) | EC50 [5]: 4.84 µM (active)

Cc1cc(C)nc(NC(N)=Nc2ccc(CC(=O)OC(C)C)cc2)n1
EC50 [2]: 2.56 µM (active)

CCCCN(C)C(=O)Cc1c(OC)ccc2cc(Br)ccc12
CC50 [1]: > 40 µM (active)

O=C(CC(NCCN1CCOCC1)C(=O)O)Nc1cccc(Cl)c1 (stereo not drawn)
EC50 [4]: 86.4 µM (active) | EC50 [5]: > 38 µM (not active)

Cc1c(C(=O)Nc2nc3ccccc3[nH]2)oc2c(Cl)cccc12
EC50 [3]: 1.72 µM (active) | EC50 [6]: 1.68 µM (active) | CC50 [1]: 32.4 µM (active) | EC50 [7]: > 60 µM (not active) | EC50 (Streptococcus): 8.37 µM (active)

CCCCN(Cc1nc(O)c2ccccc2n1)C(=O)CN1C(=O)NC2(CCCCC2)C1=O
IC50 (H9c2): 16.4 µM (active)

COC(=O)c1scc(C)c1NC(=O)c1ccccc1F
EC50 [2]: > 53 µM (inactive)

Nc1nonc1-n1nnc(C(=O)N/N=C/c2ccccn2)c1CNc1ccccc1
IC50 (H9c2): 18.1 µM (active)

O=C(Nc1cccc(/N=C/c2cc(Cl)cc(Br)c2O)c1)c1ccco1
IC50 (H9c2): 12.3 µM (active)

COc1ccccc1C(=O)NCC(=O)N/N=C/c1cc(Br)ccc1OC(=O)/C=C\c1ccco1
EC50 [9]: 11.9 µM (active) | EC50 [10]: 12 µM (active) | EC50 [11]: 11 µM (active) | IC50 (H9c2): > 79 µM (inactive)

CC1(C)CS/C(=N\Cc2ccccc2)N1C(=O)c1cccc([N+](=O)[O-])c1
EC50 [2]: 7.16 µM (active)

O=C(O)c1cccc(N/N=C(\N=Nc2ccccc2)c2ccccc2)c1
AC50 [8]: 2.45 µM (active) | IC50 (Nonstructural protein 1): 34.5 µM (active) | AC50 [12]: 7.75 µM (active) | EC50 (Protein RecA): 51.1 µM (active)
